The record followed here is patent publication US12286429B2, “5-oxo-1,2,3,5,8,8a-hexahydroindolizine-3-carboxamide derivatives useful as a factor XIa inhibitors” (Janssen Pharmaceutica NV, priority 2021, dated 2025).

Molecules are shown by their SMILES.

The target of assay [1] is Factor XIa (Homo sapiens, UniProt P03951). As to the kind of experiment: Factor XIa inhibition assay utilizing a fluorophore-quencher pair peptide substrate (FLINT). In kind it is biochemical. Particulars: 11-point, 3-fold serial dilution, top 100 nM; 30 min preincubation; 15 μM 5Fam-KLTRAETV-K5Tamra substrate; kinetic reads over 30 min; read-out: FXIa Inhibition IC50. The text has this: Biological Example 1: Factor XIa Inhibition Assay Utilizing a Fluorophore-Quencher Pair Peptide Substrate
Sequence of Factor XIa (P03951 388-625 limits assumed): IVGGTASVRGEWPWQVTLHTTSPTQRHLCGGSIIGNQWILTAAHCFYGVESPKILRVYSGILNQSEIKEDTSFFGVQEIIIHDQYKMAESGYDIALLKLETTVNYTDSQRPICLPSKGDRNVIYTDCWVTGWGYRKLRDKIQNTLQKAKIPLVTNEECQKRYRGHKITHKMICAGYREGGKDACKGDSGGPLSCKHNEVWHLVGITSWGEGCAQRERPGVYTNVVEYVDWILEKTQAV
Sequence of Factor XIa (P03951 19-387 partner limits assumed): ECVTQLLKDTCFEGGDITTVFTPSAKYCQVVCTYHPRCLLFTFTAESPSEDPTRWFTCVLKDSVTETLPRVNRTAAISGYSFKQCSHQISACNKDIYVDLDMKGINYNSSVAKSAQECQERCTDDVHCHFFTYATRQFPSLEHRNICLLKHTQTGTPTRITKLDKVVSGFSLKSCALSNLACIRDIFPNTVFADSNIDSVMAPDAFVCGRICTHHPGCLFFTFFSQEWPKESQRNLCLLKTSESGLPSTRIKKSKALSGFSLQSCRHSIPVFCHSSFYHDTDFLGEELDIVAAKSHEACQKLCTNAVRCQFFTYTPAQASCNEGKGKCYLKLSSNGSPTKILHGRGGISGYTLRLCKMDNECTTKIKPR
A fluorescence intensity (FLINT) based assay was used to monitor inhibition of Factor XIa. The peptide substrate, 5Fam-KLTRAETV-K5Tamra (purchased from New England Peptide) was chosen based on the FXI sequence. Conversion of zymogen FXI to its activated form, FXIa, occurs by proteolytic cleavage by […] at two sites, Arg146 and Arg180. The custom peptide used in this assay was based on the Arg146 cleavage site of FXI. The peptide substrate was designed with a fluorophore-quencher pair, where the fluorescence is quenched until FXIa cleaves the 8-mer peptide after the Arg residue.
The Factor XIa FLINT assay was used with the following 5Fam-KLTRAETV-K5Tamra assay buffer: 50 mM Tris, pH 7.5, 100 mM NaCl, 5 mM CaCl2, 0.1 mg/mL BSA, 0.03% CHAPS. Assay buffer was prepared by mixing all ingredients fresh. 5Fam-KLTRAETV-K5Tamra peptide substrate was first prepared at 10 mM in 100% DMSO, then diluted to 3 mM in 100% DMSO. Assay buffer was then added directly to the 3 mM stock of substrate to prepare the 30 μM 2× working concentration (15 μM final concentration). The 2× Factor XIa stock solution was prepared by diluting 6.562 μM stock in 1× assay buffer for a […].
Test compound(s) were run in an 11-point, 3-fold serial dilution with a final top compound concentration of 100 nM. Final DMSO in assay was 2%. FXIa was preincubated with compound for 30-minutes and then substrate was added to initiate the reaction. The assay was run with kinetic (KIN) reads at 5 min intervals over 30 minutes. […] More specifically, the assay was run as follows: • 100 nL of 0.01 mM test compound was dispensed into black 384-well non-binding Greiner BioOne 784900 plate for 0.1 μM final concentration, • 5 μL of 1× assay buffer was dispensed to column 24 (low control) and 5 μL 2× Factor XIa solution was dispensed to columns 1-23 (column 23 high control); • the plate was centrifuged with a “cover” plate at 500 rpm for 1 min • the plate was pre-incubated for 30 minutes at room temperature with plate covered; • 5 μL of 2×5Fam-KLTRAETV-K5Tamra peptide substrate was dispensed into the entire plate, columns 1-24; • the plate was centrifuged with a “cover” plate at 500 rpm for 1 min; • the plate was read monitoring fluorescence intensity on the BMG PHERAStar at room temperature, using fluorescence module 485 nm/520 nm.
(§1) Percent inhibition (IC50) curves were generated per compound tested, and data was analyzed using a 4-parameter logistic fit using GeneData Screener. The relative fluorescence unit (RFU) values were normalized to percent inhibition using the following equation: % inhibition=((HC−LC)−(compound−LC)/(HC−LC))*100
where LC—low control=mean signal of no Factor XIa or 100% inhibition of Factor XIa; HC—high control=mean signal of Factor XIa+5Fam-KLTRAETV-K5Tamra peptide substrate with DMSO only.
(§2) An 11-point dose response curve for the test compound(s) was generated using GENDATA to determine IC50 value based on the following equation: Y=Bottom+(Top−Bottom)/(1+10^((log IC50−X)*HillSlope))
where Y is the % inhibition in the presence of X inhibitor concentration, Top=high control=mean signal of Factor XIa+5Fam-KLTRAETV-K5Tamra peptide substrate with DMSO only; Bottom=low control—mean signal of no Factor XIa or 100% inhibition of Factor XIa; HillSlope—Hill coefficient; and IC50=concentration of compound with 50% inhibition in relation to top/high control.

The target in assay [2] is human plasma kallikrein (Homo sapiens, UniProt P03952). As to the kind of experiment: Kallikrein inhibition assay utilizing a quenched AMC peptide substrate (FLINT). The assay is classed as biochemical. Particulars: 11-point, 3-fold serial dilution, top 1 μM; 30 min preincubation; 2 nM kallikrein; 50 μM Z-Gly-Pro-Arg-AMC; kinetic reads over 30 min. The method, then:
Biological Example 2: Kallikrein Inhibition Assay Utilizing a Quenched AMC Peptide Substrate
A fluorescence intensity (FLINT) based assay was used to monitor inhibition of human plasma kallikrein. The peptide substrate, Z-Gly-Pro-Arg-AMC (Purchased from Bachem; Catalog #I-1150) was chosen based on its relatively low KM for kallikrein which enables running the assay at lower substrate concentrations to control background fluorescence. The kinetic parameters for this substrate were determined by fitting titration data to the Michaelis-Menten equation yielding a KM=40 μM, kcat=0.76 s^−1, and kcat/KM=18932 M^−1s^−1.
The Kallikrein FLINT assay was used with the following Z-Gly-Pro-Arg-AMC assay buffer: 50 mM Tris, pH 7.5, 100 mM NaCl, 5 mM CaCl2, 0.1 mg/mL BSA, 0.03% CHAPS. Assay buffer was prepared by mixing all ingredients fresh. 2× Z-Gly-Pro-Arg-AMC peptide substrate was prepared by diluting 10 mM stock into 1× assay buffer for a 100 μM working concentration (50 μM final concentration). The 2× kallikrein stock solution was prepared by diluting 14.76 μM stock in 1× assay buffer for a 4 nM working stock solution (2 nM final concentration).
Test compound(s) were run in an 11-point, 3-fold serial dilution with a final top compound concentration of 1 μM. Final DMSO in assay was 2%. Plasma kallikrein was pre-incubated for 30-minute with compound and then 50 μM substrate was added to initiate the reaction. The assay was run with kinetic (KIN) reads at 5 min intervals over 30 minutes. The time course was linear using 2 nM kallikrein greater than 30 minutes. More specifically, the assay was run as follows: • 100 nL of 0.1 mM test compound was dispensed into black 384-well non-binding Greiner BioOne 784900 plate for 1 μM final concentration; • 5 μL of 1× assay buffer was dispensed to columns 24 (low control) and 5 μL 2× human kallikrein enzyme solution was dispensed to columns 1-23 (column 23 high control); • the plate was centrifuged with a “cover” plate at 500 rpm for 1 min • the plate was pre-incubated for 30 minutes at room temperature with plate covered; • 5 μL of 2× Z-Gly-Pro-Arg-AMC peptide substrate was dispensed into the entire plate, columns 1-24; • the plate was centrifuged with a “cover” plate at 500 rpm for 1 min; • the plate was read monitoring fluorescence intensity on the BMG PHERAStar at room temperature, using fluorescence module 340 nm/440 nm.
as §1
where LC—low control=mean signal of […] 100% inhibition of human kallikrein enzyme; HC—high control=mean signal of […]+Z-Gly-Pro-Arg-AMC peptide substrate with DMSO only.
as §2
where Y is the % inhibition in the presence of X inhibitor concentration, Top=high control=mean signal of human kallikrein enzyme+Z-Gly-Pro-Arg-AMC peptide substrate with DMSO only; Bottom=low control—mean signal of no human kallikrein enzyme or 100% inhibition of human kallikrein enzyme; HillSlope—Hill coefficient; and IC50=concentration of compound with 50% inhibition in relation to top/high control.

Sequence of human plasma kallikrein (P03952 391-638 limits assumed): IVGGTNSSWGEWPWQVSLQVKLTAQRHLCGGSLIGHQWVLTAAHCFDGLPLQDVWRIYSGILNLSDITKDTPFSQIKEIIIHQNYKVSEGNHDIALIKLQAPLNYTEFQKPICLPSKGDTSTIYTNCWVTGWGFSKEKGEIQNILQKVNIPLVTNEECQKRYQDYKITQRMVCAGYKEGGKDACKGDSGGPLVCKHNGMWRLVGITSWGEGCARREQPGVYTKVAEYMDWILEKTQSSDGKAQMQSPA
Sequence of human plasma kallikrein (P03952 20-390 partner limits assumed): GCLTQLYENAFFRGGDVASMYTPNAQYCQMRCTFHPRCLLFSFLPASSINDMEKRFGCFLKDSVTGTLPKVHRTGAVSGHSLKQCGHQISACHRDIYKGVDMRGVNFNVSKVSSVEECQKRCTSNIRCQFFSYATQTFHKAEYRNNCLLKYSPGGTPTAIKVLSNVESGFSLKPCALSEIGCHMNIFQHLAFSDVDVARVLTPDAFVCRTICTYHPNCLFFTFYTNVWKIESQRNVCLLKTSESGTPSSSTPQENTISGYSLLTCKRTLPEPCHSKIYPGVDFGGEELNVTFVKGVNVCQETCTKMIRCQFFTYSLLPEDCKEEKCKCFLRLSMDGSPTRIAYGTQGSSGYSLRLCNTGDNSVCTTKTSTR

By IC50 is commonly meant the concentration at which inhibition is half-maximal. In the case of `CO[C@@H]1C[C@@H](C(=O)Nc2ccc3nn(C)cc3c2)N2C(=O)C=C(c3c(-n4cnnn4)ccc(Cl)c3F)CC12` (mixture of isomers) [ID No. 44, (1R,3S)-7-[3-Chloro-2-fluoro-6-(tetrazol-1-yl)phenyl]-1-methoxy-N-(2-methyl-2H-indazol-5-yl)-5-oxo-2,3,8,8a-tetrahydro-1H-indolizine-3-carboxamide], the IC50 in assay [1] is 10.9 nM; in assay [2], 31.4 nM.
As to `CO[C@@H]1C[C@@H](C(=O)Nc2ccc3ncccc3c2)N2C(=O)C=C(c3c(-n4cnnn4)ccc(Cl)c3F)CC12` (mixture of isomers) [ID No. 45, (1R,3S)-7-[3-Chloro-2-fluoro-6-(tetrazol-1-yl)phenyl]-1-methoxy-5-oxo-N-(6-quinolyl)-2,3,8,8a-tetrahydro-1H-indolizine-3-carboxamide], the IC50 amounted to 7.8 nM in assay [1] and 14 nM in assay [2].
As to `CO[C@@H]1C[C@@H](C(=O)Nc2ccc3nccnc3c2)N2C(=O)C=C(c3c(-n4cnnn4)ccc(Cl)c3F)CC12` (mixture of isomers) [ID No. 46, (1R,3S)-7-[3-Chloro-2-fluoro-6-(tetrazol-1-yl)phenyl]-1-methoxy-5-oxo-N-quinoxalin-6-yl-2,3,8,8a-tetrahydro-1H-indolizine-3-carboxamide], the IC50 in assay [1] came to 5.3 nM; in assay [2] it was 12.3 nM.
For `O=C(Nc1ccc(-c2nc(=O)o[nH]2)cc1F)[C@@H]1CCC2CC(c3c(-n4cnnn4)ccc(Cl)c3F)=CC(=O)N21` (mixture of isomers) [ID No. 47, (3S)-7-(3-Chloro-2-fluoro-6-(1H-tetrazol-1-yl)phenyl)-N-(2-fluoro-4-(5-oxo-2,5-dihydro-1,2,4-oxadiazol-3-yl)phenyl)-5-oxo-1,2,3,5,8,8a-hexahydroindolizine-3-carboxamide], in that order: 23.3 nM and 274 nM.
For `O=C(Nc1ccc(-n2ccnn2)cc1)[C@@H]1CCC2CC(c3c(-n4cnnn4)ccc(Cl)c3F)=CC(=O)N21` (mixture of isomers) [ID No. 48, (3S)—N-(4-(1H-1,2,3-triazol-1-yl)phenyl)-7-(3-chloro-2-fluoro-6-(1H-tetrazol-1-yl)phenyl)-5-oxo-1,2,3,5,8,8a-hexahydroindolizine-3-carboxamide], the IC50 was found to be 21.4 nM in assay [1] and 86.3 nM in assay [2].
For `O=C(Nc1ccc(-n2nccn2)cc1)[C@@H]1CCC2CC(c3c(-n4cnnn4)ccc(Cl)c3F)=CC(=O)N21` (mixture of isomers) [ID No. 49, (3S)—N-(4-(2H-1,2,3-triazol-2-yl)phenyl)-7-(3-chloro-2-fluoro-6-(1H-tetrazol-1-yl)phenyl)-5-oxo-1,2,3,5,8,8a-hexahydroindolizine-3-carboxamide] the same measures were 30.5 nM and 54.2 nM.
Consider `O=C(Nc1ccc2nc[nH]c2c1)[C@@H]1CCC2CC(c3c(-n4cnnn4)ccc(Cl)c3F)=CC(=O)N21` (mixture of isomers) [ID No. 53, (3S)—N-(1H-benzo[d]imidazol-6-yl)-7-(3-chloro-2-fluoro-6-(1H-tetrazol-1-yl)phenyl)-5-oxo-1,2,3,5,8,8a-hexahydroindolizine-3-carboxamide], for which the IC50 in assay [1] was 11.1 nM; in assay [2], 56.2 nM.
As to `O=C(Nc1ccc2ncoc2c1)[C@@H]1CCC2CC(c3c(-n4cnnn4)ccc(Cl)c3F)=CC(=O)N21` (mixture of isomers) [ID No. 54, (3S)—N-(Benzo[d]oxazol-6-yl)-7-(3-chloro-2-fluoro-6-(1H-tetrazol-1-yl)phenyl)-5-oxo-1,2,3,5,8,8a-hexahydroindolizine-3-carboxamide], the concentration for half-maximal inhibition (IC50) in assay [1] is 11.5 nM; in assay [2], 59 nM.
For the compound `O=C(Nc1ccc2ncsc2c1)[C@@H]1CCC2CC(c3c(-n4cnnn4)ccc(Cl)c3F)=CC(=O)N21` (mixture of isomers) [ID No. 55, (3S)—N-(Benzo[d]thiazol-6-yl)-7-(3-chloro-2-fluoro-6-(1H-tetrazol-1-yl)phenyl)-5-oxo-1,2,3,5,8,8a-hexahydroindolizine-3-carboxamide], the IC50 in assay [1] came to 6.6 nM; in assay [2] it was 27.7 nM.
Regarding `O=C(Nc1ccc2n[nH]nc2c1)[C@@H]1CCC2CC(c3c(-n4cnnn4)ccc(Cl)c3F)=CC(=O)N21` (mixture of isomers) [ID No. 56, (3S)—N-(2H-benzo[d][1,2,3]triazol-5-yl)-7-(3-chloro-2-fluoro-6-(1H-tetrazol-1-yl)phenyl)-5-oxo-1,2,3,5,8,8a-hexahydroindolizine-3-carboxamide], the values for the IC50 in assay [1] and in assay [2] were 5.4 nM and 19 nM, respectively.
For `O=C(Nc1ccc2[nH]nc(O)c2c1)[C@@H]1CCC2CC(c3c(-n4cnnn4)ccc(Cl)c3F)=CC(=O)N21` (mixture of isomers) [ID No. 57, (3S)-7-[3-Chloro-2-fluoro-6-(tetrazol-1-yl)phenyl]-N-(3-hydroxy-1H-indazol-5-yl)-5-oxo-2,3,8,8a-tetrahydro-1H-indolizine-3-carboxamide], the IC50 in assay [1] came to 16.7 nM; in assay [2] it was 36.1 nM.
For `O=C(O)c1ccc(NC(=O)[C@@H]2CCC3CC(c4c(-n5cnnn5)ccc(Cl)c4F)=CC(=O)N32)cc1F` (mixture of isomers) [ID No. 58, 4-[[(3S)-7-[3-Chloro-2-fluoro-6-(tetrazol-1-yl)phenyl]-5-oxo-2,3,8,8a-tetrahydro-1H-indolizine-3-carbonyl]amino]-2-fluoro-benzoic acid], the IC50 is 1.2 nM in assay [1] and 107 nM in assay [2].
